Assay results published in patent US11643405B2, “Compound for treatment or prevention of liver diseases” (JIANGSU ATOM BIOSCIENCE AND PHARMACEUTICAL CO., LTD., priority 2018, dated 2023).
Marks after values point to notes of the source that are not given here.

Tested on: zebrafish non-alcoholic fatty liver
Assay: Fat reduction or elimination effect on thioacetamide-induced zebrafish non-alcoholic fatty liver (Oil Red O staining)
Assay type: in vivo
Conditions: for The total optical density of liver fat: mean ± SE, n = 10; for inhibition at 100 µM / inhibition at 200 µM: Danio rerio, read-out: Inhibition rate of liver steatosis
Method: 40 mM stock solution of test compounds 4, 5, 6, 7, 46, 67, 78, 85, 92 and 101 were prepared with DMSO, and stored in a refrigerator at −20° C. The positive control compound S-adenosylmethionine (SAM) was purchased from Aladdin Reagent (Shanghai) Co., Ltd., with the batch number F1523051, which was prepared into a 50 mM stock solution with DMSO. The control compound silymarin was purchased from Shanghai Dibai Biotechnology Co., Ltd., with the batch number EE09, which was prepared into a 40 mM stock solution with DMSO. Thioacetamide was purchased from Sigma-Aldrich, with the batch number BCBV3031, which wasprepared into a 1 M stock solution with DMSO. Oil Red O was purchased from Sigma-Aldrich, with the batch number SLBP5248V. 4% paraformaldehyde was purchased from Dingguo Biotechnology Co., Ltd., with the batch number 773001800. Propylene glycol was purchased from Sinopharm Chemical Reagent Co., Ltd., with the batch number 20170615.
The melanin allele mutant translucent Albino line zebrafish was reproduced in natural paired mating. The fish age was 3 days after fertilization, with 30 fish per experimental group.
The above zebrafish were raised in fish farming water at 28° C. (water quality: 200 mg instant sea salt was added to 1 L of reverse osmosis water, conductivity was 480-510 μS/cm; pH was 6.9-7.2; hardness was 53.7-71.6 mg/L CaCOs), the experimental animal use license number was: SYXK (Zhejiang) 2012-0171. Feeding management met the requirements of international AAALAC certification.
Three days after fertilization, the normal melanin allele mutant translucent Albino strain of zebrafish was randomly selected and placed in a six well plate with 30 fish per well (i.e. each experimental group), and then thioacetamide with the final concentration of 7 mM was used to treat zebrafish for 72 hours to establish the non-alcoholic fatty liver model.
The zebrafish were transferred to a six-well plate, with 30 fish per well (i.e., each experimental group) randomly. Non-alcoholic fatty liver model in zebrafish were induced by thioacetamide. 40 mM test compounds 4, 5, 6, 7, 46, 67, 78, 85, 92 and 101 were quantitatively transferred to a six-well plate, and diluted with water to the corresponding concentration. Test compounds 4, 5, 6 and 7 were formulated into two dose groups with final concentration of 100 μM and 200 μM, respectively; test compound 46 was formulated into a dose group with final concentration of 200 μM; test compounds 67, 78, 85, 92 and 101 were formulated into dose groups with a final concentration of 100 μM; 50 mM positive control SAM was formulated with water to a dose group with final concentration of 50 μM, and a 40 mM positive control silymarin was formulated with water to two concentration dose groups with final concentration of 100 μM and 200 μM. A normal control group (zebrafish treated with fish farming water) and a model control group were set at the same time, and the total volume of each well was 3 mL. Except for the normal control group, the other experimental groups were treated with thioacetamide for 72 hours and stained with Oil Red O. After staining, 10 zebrafish were randomly selected from each experimental group and photographed under a dissecting microscope, NIS-Elements D 3.10 advanced image processing software was used to perform image analysis and collect data, the total optical density (S) of zebrafish liver fat was statistically analyzed, and for the inhibitory effect of each experimental group on liver steatosis of zebrafishwas evaluated by the following formula, the results of statistical analysis were expressed as mean±SE: Inhibition rate of liver steatosis (%)=[S(model control group)−S(test compound group)]/[S(model control group)−S(normal control group)]×100%
Statistical analysis was performed using analysis of variance and Dunnett's T-test, and p<0.05 indicated a significant difference. […]

COc1cc([C@H]2Oc3cc([C@H]4Oc5cc(O)cc(O)c5C(O)[C@@H]4O)ccc3O[C@@H]2CO)ccc1O (stereo partly drawn) [Compound 5, (2R,3S)-2-{(2R,3R)-3-(4-hydroxy-3-methoxyphenyl)-2-hydroxymethyl-2,3-dihydrobenzo[b][1,4]dioxan-6-yl}chroman-3,4,5,7-tetraol]
Inhibition rate of liver steatosis (100 μM): 85** % | Therapeutic effect on non-alcoholic fatty liver of zebrafish (in words) (100 μM): significant therapeutic effects | The total optical density of liver fat (100 μM): 18496 ± 862 Pixels | Therapeutic effect on zebrafish non-alcoholic fatty liver (in words) (200 μM): significant therapeutic effect | The total optical density of liver fat (200 μM): 18452 ± 795 Pixels | inhibition at 100 µM (100 μM): 84% | inhibition at 200 µM (200 μM): 86%

COc1cc([C@H]2Oc3cc([C@H]4Oc5cc(O)cc(O)c5C[C@@H]4O)ccc3O[C@@H]2CO)ccc1O [Compound 6, (2R,3S)-2-{(2R,3R)-3-(4-hydroxy-3-methoxyphenyl)-2-hydroxymethyl-2,3-dihydrobenzo[b][1,4]dioxan-6-yl}chroman-3,5,7-triol]
Therapeutic effect on non-alcoholic fatty liver of zebrafish (in words) (100 μM): significant therapeutic effects | The total optical density of liver fat (100 μM): 19868 ± 556 Pixels | Therapeutic effect on zebrafish non-alcoholic fatty liver (in words) (200 μM): significant therapeutic effect | The total optical density of liver fat (200 μM): 18157 ± 572 Pixels | inhibition at 100 µM (100 μM): 58% | inhibition at 200 µM (200 μM): 92%

COc1cc([C@H]2Oc3cc([C@H]4Oc5cc(O)cc(O)c5/C(=N/O)[C@@H]4O)ccc3O[C@@H]2CO)ccc1O [Compound 46, (2R,3S)-3,5,7-trihydroxy-2-{(2R,3R)-3-(4-hydroxy-3-methoxyphenyl)-2-hydroxymethyl-2,3-dihydrobenzo[b][1,4]dioxan-6-yl}chroman-4-one oxime]
Therapeutic effect on zebrafish non-alcoholic fatty liver (in words) (200 μM): significant therapeutic effect | The total optical density of liver fat (200 μM): 19767 ± 814 Pixels | inhibition at 200 µM (200 μM): 60%

COc1cc(OC)c2c(c1)OC(c1cc(O)c3c(c1)OC(c1ccc(O)c(OC)c1)C(CO)O3)C(O)C2 (stereo not drawn) [Compound 78, 7-{(3-hydroxy-5,7-dimethoxychroman-2-yl)-2-(4-hydroxy-3-methoxyphenyl)-3-hydroxymethyl-2,3-dihydrobenzo[b][1,4]dioxane}-5-ol]
Therapeutic effect on non-alcoholic fatty liver of zebrafish (in words) (100 μM): significant therapeutic effects | The total optical density of liver fat (100 μM): 19665 ± 1330 Pixels | inhibition at 100 µM (100 μM): 62%

COc1cc(OC)c2c(c1)OC(c1cc(O)c3c(c1)OC(c1ccc(O)c(OC)c1)C(CO)O3)C(O)C2O (stereo not drawn) [Compound 92, 2-{8-hydroxy-3-(4-hydroxy-3-methoxyphenyl)-2-hydroxymethyl-2,3-dihydrobenzo[b][1,4]dioxan-6-yl}-5,7-dimethoxychroman-3,4-diol]
Therapeutic effect on non-alcoholic fatty liver of zebrafish (in words) (100 μM): significant therapeutic effects | The total optical density of liver fat (100 μM): 17836 ± 639 Pixels | inhibition at 100 µM (100 μM): 98%

COc1cc(C2Oc3cc(C4Oc5cc(F)cc(O)c5C(O)C4O)cc(O)c3OC2CO)ccc1O (stereo not drawn) [Compound 101, 7-fluoro-2-{8-hydroxy-3-(4-hydroxy-3-methoxyphenyl)-2-hydroxymethyl-2,3-dihydrobenzo[b][1,4]dioxan-6-yl}chroman-3,4,5-triol]
Therapeutic effect on non-alcoholic fatty liver of zebrafish (in words) (100 μM): significant therapeutic effects | The total optical density of liver fat (100 μM): 18090 ± 837 Pixels | inhibition at 100 µM (100 μM): 93%

C[S+](CC[C@H](N)C(=O)[O-])C[C@H]1O[C@@H](n2cnc3c(N)ncnc32)[C@H](O)[C@@H]1O (stereo partly drawn) [S-adenosylmethionine, reference compound]
Inhibition rate of liver steatosis (50 μM (SAM)): 89% | The total optical density of liver fat (50 μM (SAM)): 18301 ± 783 Pixels
